For four molecules, EC50 results are on record in paper PMC9804224, “Statin activation of skeletal ryanodine receptors (RyR1) is a class effect but separable from HMG‐CoA reductase inhibition” (British Journal of Pharmacology, 2022).

What all share (format): biochemical
For test [1], the target named is T1, skeletal ryanodine receptor (RyR1) (Ovis aries, UniProt A0ACI6NWU0). Briefly: increase of [3H]ryanodine binding to SR membrane vesicles (channel activation). Also on record: native RyR1 in skeletal muscle SR membrane vesicles.
The target of test [2] is T1, skeletal ryanodine receptor (RyR1). Briefly: single-channel recording in planar lipid bilayers (activation); also [3H]ryanodine binding EC50 […]. Also noted: native RyR1 channels from skeletal muscle heavy SR vesicles.
For test [3] the target is unchanged. The test is described as above. Also on record: native RyR1 channels from skeletal muscle heavy SR vesicles. The source holds these as a separate data set.

One may read the EC50 as the concentration that produces a half-maximal response.

Molecules are shown by their SMILES.

For `CC(C)c1nc(N(C)S(C)(=O)=O)nc(-c2ccc(F)cc2)c1/C=C/[C@@H](O)C[C@@H](O)CC(=O)O` [rosuvastatin], in test [1] (read-out: EC50), the EC50 was 490 nM.

Consider `CC(C)c1c(C(=O)Nc2ccccc2)c(-c2ccccc2)c(-c2ccc(F)cc2)n1CC[C@@H](O)C[C@@H](O)CC(=O)O` [atorvastatin], for which the midpoint of the response in test [2], the EC50, lay at 29 nM.

In turn, `CC[C@H](C)C(=O)O[C@H]1C[C@H](O)C=C2C=C[C@H](C)[C@H](CC[C@@H](O)C[C@@H](O)CC(=O)O)[C@H]21` [pravastatin] showed an EC50 in test [1] of 440 nM.

`COCc1c(C(C)C)nc(C(C)C)c(/C=C/[C@@H](O)C[C@@H](O)CC(=O)O)c1-c1ccc(F)cc1` [cerivastatin] showed an EC50 in test [3] of 130 nM.
